How the values were obtained:
[1] = test system: patients with advanced solid tumors; conditions: in vivo; cited from earlier work
clinical = conditions: human, in vivo, iv
Description: (§1) Blood samples were taken following drug administration and the plasma extracted immediately and stored. Blood samples for determination of Cilengitide were collected at the following time points: day 1 immediately before Cilengitide infusion and after 1 h (end of infusion); day 8 immediately before Cilengitide infusion and after 1 h (end of infusion) and 0.5 h, 1 h, 2 h, 3 h, 4 h, 7 h, and 11 h after end of Cilengitide infusion. Blood samples for gemcitabine analysis were collected in both treatment arms on day 1 and day 8 at the following time points: 0 h (immediately before start of infusion of gemcitabine), 0.5 h (at the end of infusion of gemcitabine) and 0.5 h, 1.5 h, 2.5 h, and 3.5 h after end of gemcitabine infusion.
(§2) Analysis was carried out at a single laboratory using high-performance liquid chromatography-tandem mass spectrometry. Calculation of pharmacokinetic parameters was performed according to non-compartmental standard methods. Pharmacokinetic analyses included maximum plasma concentration (Cmax), time to maximum concentration (tmax), area under the curve from time zero to the last sampling time (AUC0-t), area under the curve from time zero to infinity (AUC0-∝), apparent elimination rate constant (λz), apparent terminal elimination half-life associated with the negative terminal slope (t1/2), total body clearance of drug from plasma (CL) and the volume of distribution at steady state (Vss). The lower limits of quantification for Cilengitide and gemcitabine in plasma were 1 ng/mL and 50 ng/mL, respectively. For the plasma quality control samples of Cilengitide the interbatch coefficient of variation (CV) was 3.4% to 9.2% and the interbatch accuracy was 97% to 104%. For the plasma quality control samples of gemcitabine, the interbatch CV was 5.6% to 9.4% and the interbatch accuracy was 93.5% to 104%.

[2] = ancillary pharmacokinetic study, plasma, HPLC-MS/MS; conditions: for Tmax: human, iv
Description: as §1, §2

[3] = human, in vivo, iv, 600 mg/m^2, 1 h
Description: as §1, §2

[4] = test system: patients with advanced unresectable pancreatic cancer; experiment: randomized phase II trial: survival, PFS and tumor response; format: in vivo, human
From the text: Patients with advanced unresectable pancreatic cancer were enrolled. Eligibility criteria included age ≥ 18 years, diagnosed (histologically or cytologically) with or without metastases, at least one bidimensionally measurable lesion, a Karnofsky performance score of ≥ 70%, a life expectancy of at least 12 weeks, and written informed consent. The main exclusion criteria were prior chemotherapy and/or major surgery related to pancreatic cancer before study entry with the exception of palliative surgery, brain metastases, a pancreatic tumor of neuroendocrine origin, second primary malignancies, inadequate liver and renal functions, inadequate bone marrow reserve, a history of cerebrovascular accident or repeated transient ischemic attacks and cardiac or cardiovascular abnormality.
This was a multi-national, open-label, controlled, randomized, parallel-group, phase II pilot study, conducted in 20 centers in 7 countries (Austria, Belgium, France, Germany, Spain, Switzerland, and the United Kingdom). Eligible patients were randomized to receive either Cilengitide and gemcitabine or gemcitabine alone. The Pocock minimization method [23] was applied for randomization using factors for center and for locally advanced or metastatic disease following the definition according to the tumor-node-metastasis (TNM) classification and histopathological grading system of the International Union Against Cancer. Cilengitide (600 mg/m^2) was administered twice weekly as a 1 hour intravenous (IV) infusion for 4 consecutive weeks (1 cycle). Gemcitabine (1000 mg/m^2) was administered as a weekly 30-minute IV infusion once weekly for 3 weeks followed by 1 week of rest (1 cycle). In the drug combination group, on the days on which both drugs were given, Cilengitide was given immediately prior to gemcitabine. The planned treatment period was 24 weeks (6 cycles), but patients responding to either regimen could continue treatment up to a maximum of 48 weeks.
Overall survival was defined as the time from the start of study drug administration to death. PFS was defined as the time interval between the date of randomization and the date of disease progression or death whichever came first. If neither was observed the patient was censored at the date of the last follow-up examination. A computed tomography or magnetic resonance imaging scan of target lesions was performed at baseline, weeks 9 and 17, and at the end of treatment to assess tumor size and treatment response. Unscheduled scans were conducted to confirm disease progression. Tumor response was assessed according to the amended World Health Organization (WHO) criteria for response based on the size of target lesions.
The sample size of the trial was determined by clinical feasibility. No inferential statistical comparison of the two treatment arms was planned. The aim was to obtain information on safety and feasibility as well as trends in efficacy by determination of overall survival as primary and progression-free survival (PFS), response rate, quality of life (QoL), effects on biological markers of disease (CA 19.9) and angiogenesis (vascular endothelial growth factor and basic fibroblast growth factor) and safety as secondary endpoints. Confidence intervals were presented at the 95%-confidence level. The data of this phase II pilot- and feasibility study, are presented in a descriptive manner. The primary analysis of survival (time to death from any cause) was conducted using the intention-to-treat (ITT) population. An additional supportive analysis using the Per Protocol (PP) population was conducted. The secondary objectives were to determine PFS, response rates, safety and tolerability, QoL, biological response, and pharmacokinetics.

[5] = test system: patients with advanced unresectable pancreatic cancer; experiment: randomized phase II trial: safety, adverse events (NCI-CTC); format: in vivo, human
From the text: This was a multi-national, open-label, controlled, randomized, parallel-group, phase II pilot study, conducted in 20 centers in 7 countries (Austria, Belgium, France, Germany, Spain, Switzerland, and the United Kingdom). Eligible patients were randomized to receive either Cilengitide and gemcitabine or gemcitabine alone. The Pocock minimization method was applied for randomization using factors for center and for locally advanced or metastatic disease following the definition according to the tumor-node-metastasis (TNM) classification and histopathological grading system of the International Union Against Cancer. Cilengitide (600 mg/m^2) was administered twice weekly as a 1 hour intravenous (IV) infusion for 4 consecutive weeks (1 cycle). Gemcitabine (1000 mg/m^2) was administered as a weekly 30-minute IV infusion once weekly for 3 weeks followed by 1 week of rest (1 cycle). In the drug combination group, on the days on which both drugs were given, Cilengitide was given immediately prior to gemcitabine. The planned treatment period was 24 weeks (6 cycles), but patients responding to either regimen could continue treatment up to a maximum of 48 weeks. […] Any change was based on patient hematological and/or non-hematological parameters on the intended day of treatment as well as the maximum drug-induced toxicity grade observed between dosing. The before treatment and 4-weekly evaluations included a physical examination and laboratory investigations (blood counts, biochemical profile, urinalysis). Assessments were also made of Karnofsky performance status and vital signs. Before the start of the study, at the end of the study and when clinically indicated during the study chest X-rays and 12-lead electrocardiograms were performed. Adverse events were monitored and evaluated for frequency, duration, severity (mild, moderate, severe, life-threatening) and possible relationship to study medication. Toxicity was assessed according to NCI-CTC Version 2. All adverse events whether reported by a patient or observed by an investigator or study nurse were documented, regardless of whether they were considered to be drug-related, together with any medical intervention.

[6] = test system: patients with advanced unresectable pancreatic cancer; experiment: randomized phase II trial: quality of life (EORTC QLQ-C30); format: in vivo, human; conditions: QLQ-C30, change from baseline
Description: Quality of life (QoL) was assessed using the European Organization for Research and Treatment of Cancer (EORTC) QoL core questionnaire (QLQ-C30, Version 3.0) in conjunction with the EORTC Pancreatic Module ([…] is a self-administered 30-item questionnaire and incorporates 5 functional scales, 3 symptom scales and a global health/QoL scale. EORTC-PAN26 is a 26-item questionnaire addressing pancreas cancer specific symptoms and the side effects from conventional therapy. Assessments were made at weeks 1, 9, 17, 25 and at the end of treatment. QoL data were analyzed descriptively due to the small number of patients enrolled in the study.

[7] = test system: patients with advanced pancreatic cancer; conditions: cited from earlier work
[8] = Cilengitide 600 mg/m^2 1 h IV infusion with gemcitabine, plasma, n 10
[9] = WHO criteria, ITT, listed as gemcitabine alone
[10] = all adverse events during the treatment period
[11] = onset during the treatment phase
[12] = possibly related to treatment, listed as gemcitabine alone
[13] = in combination with gemcitabine

Question: Which results are given for `CC(C)[C@H]1C(=O)N[C@@H](CCCN=C(N)N)C(=O)NCC(=O)N[C@@H](CC(=O)O)C(=O)N[C@H](Cc2ccccc2)C(=O)N1C` [Cilengitide, Cyclo-l-Arg-l-Asp-d-Phe-N (Me) l-Val]?
Answer: dose limiting toxicity [1]: no dose limiting toxicity was recorded; level at 1 h (clinical; 600 mg/m^2, mean concentration at the end of infusion): 75.4 ± 31.5 µg/mL; half-life (clinical; t1/2, Geomean): ~3 h; CL, Geomean [2, 8]: 54.2 mL/min/m^2; Vss, Geomean [2, 8]: 12100 mL/m^2; Tmax ([2]; plasma): 1 h; mean concentration at the end of infusion [3]: 62.182 ± 12.345 µg/mL

Question: With `Nc1ccn([C@@H]2O[C@H](CO)[C@@H](O)C2(F)F)c(=O)n1` [Gemcitabine, gemcitabine] as the compound, how does the “1-year survival (95% CI)” value ([4]; ITT population) read?
Answer: 0.24 (0.11–0.37)

Question: What about the “Median PFS (95% CI)” value ([4]; ITT population) of the same compound?
Answer: 115 (62–178) days

Question: And the “Median survival (95% CI)” value ([4]; ITT population)?
Answer: 234 (137–290) days

Question: What about the Number of deaths ([4]; ITT population) of the same compound?
Answer: 37

Question: And the “median PFS time” value ([4]; ITT population)?
Answer: 3.8 months

Question: And the median overall survival ([4]; ITT population)?
Answer: 7.7 months

Question: And the “Complete response, % of patients” value ([4]; WHO criteria, ITT)?
Answer: 2%

Question: What about the “Complete response, No. patients” value ([4]; WHO criteria, ITT) of the same compound?
Answer: 1

Question: What about the “Partial response, % of patients” value ([4]; WHO criteria, ITT) of the same compound?
Answer: 12%

Question: And the “Partial response, No. patients” value ([4]; WHO criteria, ITT)?
Answer: 5

Question: What about the “Progressive disease, % of patients” value ([4]; WHO criteria, ITT) of the same compound?
Answer: 23%

Question: What about the “Progressive disease, No. patients” value ([4]; WHO criteria, ITT) of the same compound?
Answer: 10

Question: And the “Response rate, % of patients” value ([4]; WHO criteria, ITT)?
Answer: 14%

Question: What about the “Response rate, No. patients” value ([4]; WHO criteria, ITT) of the same compound?
Answer: 6

Question: What about the “Stable disease, % of patients” value ([4]; WHO criteria, ITT) of the same compound?
Answer: 42%

Question: What about the “Stable disease, No. patients” value ([4]; WHO criteria, ITT) of the same compound?
Answer: 18

Question: And the “Tumor growth control rate, % of patients” value ([4]; WHO criteria, ITT)?
Answer: 56%

Question: What about the “Tumor growth control, No. patients” value ([4]; WHO criteria, ITT) of the same compound?
Answer: 24

Question: And the “Response rate, % of patients” value [4, 9]?
Answer: 14%

Question: What about the “Tumor growth control rate, % of patients” value [4, 9] of the same compound?
Answer: 56%

Question: What about the “Condition reduced, number of events” value ([5]; SAE, Grade 3, relationship not assessable, considered possibly related) of the same compound?
Answer: 1

Question: And the “Gamma-glutamyl transferase elevations (% of patients)” value [5, 10]?
Answer: 29%

Question: And the “Nausea (% of patients)” value [5, 10]?
Answer: 50%

Question: What about the “Shivering (% of patients)” value [5, 10] of the same compound?
Answer: 7%

Question: And the “ascites (% of patients)” value [5, 10]?
Answer: 26%

Question: What about the “cholestasis (% of patients)” value [5, 10] of the same compound?
Answer: 26%

Question: And the “dyspepsia (% of patients)” value [5, 10]?
Answer: 29%

Question: And the “dyspnea (% of patients)” value [5, 10]?
Answer: 14%

Question: And the “fever (% of patients)” value [5, 10]?
Answer: 24%

Question: And the “jaundice (% of patients)” value [5, 10]?
Answer: 19%

Question: What about the “urinary tract infection (% of patients)” value [5, 10] of the same compound?
Answer: 21%

Question: And the “number of possibly related serious adverse events” value ([5]; in vivo)?
Answer: 8

Question: What about the “patients with possibly related adverse events, %” value ([5]; in vivo) of the same compound?
Answer: 76%

Question: What about the “patients with possibly related adverse events, number” value ([5]; in vivo) of the same compound?
Answer: 32

Question: What about the “total number of possibly related adverse events” value ([5]; in vivo) of the same compound?
Answer: 278

Question: What about the “AE, Grade 1/2, No. of events” value [5, 11] of the same compound?
Answer: 617

Question: And the “AE, Grade 1/2, Pts (%)” value [5, 11]?
Answer: 17%

Question: And the “AE, Grade 3/4, No. of events” value [5, 11]?
Answer: 138

Question: What about the “AE, Grade 3/4, Pts (%)” value [5, 11] of the same compound?
Answer: 83%

Question: What about the “AE, all grades, No. of events” value [5, 11] of the same compound?
Answer: 755

Question: And the “AE, all grades, Pts (%)” value [5, 11]?
Answer: 100%

Question: What about the “SAE, all, No. of events” value [5, 11] of the same compound?
Answer: 64

Question: What about the “SAE, all, Pts (%)” value [5, 11] of the same compound?
Answer: 71%

Question: What about the “SAE, all, Pts (%)” value ([5]; onset during the treatment phase, listed as gemcitabine alone) of the same compound?
Answer: 71%

Question: And the “Epistaxis, number of events” value ([5]; possibly related SAE, Grade 2)?
Answer: 1

Question: And the “Exanthema, number of events” value ([5]; possibly related SAE, Grade 2)?
Answer: 1

Question: And the “Pneumonia, number of events” value ([5]; possibly related SAE, Grade 2)?
Answer: 1

Question: And the “Anorexia, number of events” value ([5]; possibly related SAE, Grade 3)?
Answer: 1

Question: And the “Depression, number of events” value ([5]; possibly related SAE, Grade 3)?
Answer: 1

Question: What about the “Dyspnea, number of events” value ([5]; possibly related SAE, Grade 3) of the same compound?
Answer: 2

Question: What about the “Anemia (% of patients)” value ([5]; possibly related to treatment) of the same compound?
Answer: 26%

Question: What about the “Anorexia (% of patients)” value ([5]; possibly related to treatment) of the same compound?
Answer: 14%

Question: And the “Asthenia (% of patients)” value ([5]; possibly related to treatment)?
Answer: 10%

Question: And the “Edema (% of patients)” value ([5]; possibly related to treatment)?
Answer: 5%

Question: What about the “Fatigue (% of patients)” value ([5]; possibly related to treatment) of the same compound?
Answer: 19%

Question: What about the “Hair changes (% of patients)” value ([5]; possibly related to treatment) of the same compound?
Answer: 12%

Question: What about the “Headache (% of patients)” value ([5]; possibly related to treatment) of the same compound?
Answer: 0%

Question: What about the “Leukopenia (% of patients)” value ([5]; possibly related to treatment) of the same compound?
Answer: 26%

Question: What about the “Nausea (% of patients)” value ([5]; possibly related to treatment) of the same compound?
Answer: 38%

Question: And the “Peripheral edema (% of patients)” value ([5]; possibly related to treatment)?
Answer: 5%

Question: What about the “Shivering (% of patients)” value ([5]; possibly related to treatment) of the same compound?
Answer: 2%

Question: What about the “Sweating increased (% of patients)” value ([5]; possibly related to treatment) of the same compound?
Answer: 2%

Question: What about the “Thrombocytopenia (% of patients)” value ([5]; possibly related to treatment) of the same compound?
Answer: 33%

Question: And the “Vomiting (% of patients)” value ([5]; possibly related to treatment)?
Answer: 26%

Question: What about the “dyspepsia (% of patients)” value ([5]; possibly related to treatment) of the same compound?
Answer: 7%

Question: And the “fever (% of patients)” value ([5]; possibly related to treatment)?
Answer: 10%

Question: And the “Leukopenia (% of patients)” value [5, 12]?
Answer: 26%

Question: What about the “Shivering (% of patients)” value [5, 12] of the same compound?
Answer: 2%

Question: What about the “patients reporting an improved global health status” value ([6]; week 9) of the same compound?
Answer: 50%

Question: What about the “patients reporting an improved global health status” value ([6]; week 17) of the same compound?
Answer: 47%

Question: And the “median maximum plasma concentration” value ([2]; gemcitabine alone group, Week 1, n = 5)?
Answer: 10600 ng/mL

Question: What about the “median maximum plasma concentration” value ([2]; gemcitabine alone group, Week 2, n = 5) of the same compound?
Answer: 6060 ng/mL

Question: What about the “median maximum plasma concentration” value ([2]; gemcitabine in the Cilengitide and gemcitabine group, Week 1, n = 12) of the same compound?
Answer: 6960 ng/mL

Question: What about the “median maximum plasma concentration” value ([2]; gemcitabine in the Cilengitide and gemcitabine group, Week 2, n = 11) of the same compound?
Answer: 7490 ng/mL

Question: And the Tmax ([2]; plasma, 1000 mg/m^2)?
Answer: 0.5 h

Question: And the median survival time ([7]; gemcitabine alone)?
Answer: 5.7 months

Question: What does the source list for “bevacizumab: anti-VEGF-agent, given in combination with gemcitabine”?
Answer: median overall survival time [7, 13]: 8,8 months; response rate [7, 13]: 21%
